Results published in ChEMBL document CHEMBL1129416, “Brain-targeted delivery of a leucine-enkephalin analogue by retrometabolic design” (J Med Chem, 1996).

Experiment: The compound was evaluated for opioid receptors binding affinity competition with [3H]diprenorphine.

Work on `CC(C)C[C@@H](NC(=O)[C@H](Cc1ccccc1)NC(=O)CNC(=O)[C@@H](C)NC(=O)[C@@H](N)Cc1ccc(O)cc1)C(=O)O` [DADLE] yielded an IC50 of 36 nM.
